Assay results reported in patent US20240182465A1 (GENFLEET THERAPEUTICS (SHANGHAI) INC., priority 2021, published 2024).
Where a name gives a salt, the structure may show the parent alone.

Experiments:
HPK1 [1] = biological target: T1, HPK1 (Homo sapiens, UniProt Q92918); test: HPK1 kinase activity assay (ADP-Glo); conditions: HPK1 Kinase activity IC50 (nM), 1 nM HPK1, 10 μM ATP, 0.1 μg/μL MBP
T1 sequence (Q92918 1-346 limits assumed): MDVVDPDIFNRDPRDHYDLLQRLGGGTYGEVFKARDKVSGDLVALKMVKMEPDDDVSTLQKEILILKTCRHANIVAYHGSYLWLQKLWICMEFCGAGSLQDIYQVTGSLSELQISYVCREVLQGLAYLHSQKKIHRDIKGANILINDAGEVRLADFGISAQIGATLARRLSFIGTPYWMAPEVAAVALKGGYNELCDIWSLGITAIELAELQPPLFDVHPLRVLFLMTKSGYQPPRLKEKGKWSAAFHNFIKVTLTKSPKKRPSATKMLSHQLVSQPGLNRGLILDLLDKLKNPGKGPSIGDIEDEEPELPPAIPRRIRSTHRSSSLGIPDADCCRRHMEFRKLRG
Procedure: Preparation of buffer: 1× reaction buffer (40 mM Tris-HCl, 20 mM MgCl2, 0.01% Brij35, 50 μM DTT, 0.1 mg/ml BSA) was prepared using sterile water, which was prepared and used on the day of the experiment.
Preparation of 1000× drug stock plate: a 1000× compound stock plate was prepared. […] The compound stock plate was sealed with a sealing film and stored in a −20° C. refrigerator for later use.
Compound preparation and dosing: the 1000× drug stock plate was taken and melted at room temperature in the dark. Then 5× drug intermediate plate was prepared using reaction buffer and mixed well. 2 μL was transferred from the 5× drug intermediate plate into a 384-well plate, and negative control well and positive control well (in which 2 μL reaction buffer containing 0.5% DMSO was added) were set. Each point was repeated twice.
Preparation and incubation of reaction mixture: HPK1 protein was diluted to a 2.5× working solution with reaction buffer. 4 μL 2.5×HPK1 protein was added to each well containing test compound and positive control well, and 4 μL of reaction buffer without HPK1 protein was added to the negative control well. The obtained mixture was centrifuged at 1000 rpm for 1 min and then incubated in a 20° C. incubator for 15 min. A 2.5× mixed working solution of MBP protein and ATP was prepared with reaction buffer at concentrations of 0.5 μg/μL and 50 PM, respectively. 4 μL of the mixed working solution of MBP and ATP was added to each well, centrifuged at 1000 rpm for 1 min, and then incubated in a 20° C. incubator for 90 min.
ADP-Glo detection and reading plate: 10 μl ADP-Glo was added to each well of the test plate. The resulting mixture was centrifuged at 1000 rpm for 1 min and incubated in a 20° C. incubator for 60 min. Then 10 μL of the final incubation solution was transferred from the test plate to a new 384-well plate. 10 μL of kinase detection reagent was added to each well, centrifuged at 400 g for 1 min, and incubated in a 20° C. incubator for 60 min. Chemiluminescent signals were read by a microplate reader.

HPK1 [2] = biological target: HPK1 (Homo sapiens, UniProt Q92918); test: SLP76 phosphorylation assay (intracellular HPK1 inhibitory activity, p-SLP76 Ser376 sandwich ELISA); conditions: p-SLP76 IC50(nM), Jurkat, Clone E6-1 cells; 1 h compound pre-incubation, anti-CD3 beads stimulation 20 min; SLP76 phosphorylation at S376
Target sequence in this assay (Q92918 whole entry): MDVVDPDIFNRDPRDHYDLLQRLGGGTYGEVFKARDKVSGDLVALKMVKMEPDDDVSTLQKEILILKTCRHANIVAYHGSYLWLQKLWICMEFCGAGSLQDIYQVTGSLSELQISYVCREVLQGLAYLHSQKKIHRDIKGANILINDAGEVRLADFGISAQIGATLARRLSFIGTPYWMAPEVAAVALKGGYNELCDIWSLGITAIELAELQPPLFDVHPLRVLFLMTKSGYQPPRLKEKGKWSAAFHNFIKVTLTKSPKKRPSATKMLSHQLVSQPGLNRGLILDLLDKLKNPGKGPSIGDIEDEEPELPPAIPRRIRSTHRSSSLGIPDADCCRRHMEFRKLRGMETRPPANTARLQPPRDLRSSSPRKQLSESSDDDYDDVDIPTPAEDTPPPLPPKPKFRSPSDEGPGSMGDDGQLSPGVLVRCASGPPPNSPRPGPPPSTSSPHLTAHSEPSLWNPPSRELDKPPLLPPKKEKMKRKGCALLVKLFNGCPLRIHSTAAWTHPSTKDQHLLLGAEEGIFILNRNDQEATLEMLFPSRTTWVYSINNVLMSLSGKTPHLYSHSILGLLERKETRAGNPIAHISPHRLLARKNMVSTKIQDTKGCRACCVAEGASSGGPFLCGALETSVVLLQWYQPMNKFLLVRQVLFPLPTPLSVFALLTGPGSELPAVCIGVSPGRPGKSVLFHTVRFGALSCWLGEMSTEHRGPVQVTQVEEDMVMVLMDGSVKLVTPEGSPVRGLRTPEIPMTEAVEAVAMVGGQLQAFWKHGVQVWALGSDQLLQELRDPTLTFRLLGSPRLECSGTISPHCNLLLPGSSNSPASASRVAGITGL

## Nc1ncc(-c2cc3c(c([C@@H]4CCCN4)c2)COCC3)cc1-c1nccs1 [Compound Z238, (S)-5-(8-(pyrrolidin-2-yl)isochroman-6-yl)-3-(thiazol-2-yl)pyridin-2-amine]
HPK1 [1]
  IC50: 1.48 nM
HPK1 [2]
  IC50: 354 nM

## Cc1c[nH]c2ncc(-c3cc4c(c(C5COC(N)=N5)c3)COCC4)cc12 (stereo not shown) [Compound Z243, 4-[6-(3-methyl-1H-pyrrolo[2,3-b]pyridin-5-yl)isochroman-8-yl]-4,5-dihydrooxazol-2-amine]
HPK1 [1]
  IC50: 16.5 nM
HPK1 [2]
  IC50: 2510 nM

## Cc1c[nH]c2ncc(-c3cc4c(c([C@@H]5CCCN5)c3)CN(C(=O)C3(O)CCOCC3)CC4)cc12 [Compound Z244, (S)-(4-hydroxytetrahydro-2H-pyran-4-yl)(6-(3-methyl-11H-pyrrolo[2,3-b]pyridin-5-yl)-8-(pyrrolidin-2-yl)-3,4-dihydroisoquinolin-2(1H)-yl)methanone]
HPK1 [1]
  IC50: 0.35 nM
HPK1 [2]
  IC50: 96.6 nM

## COC1(C(=O)N2CCc3cc(-c4cnc5[nH]cc(C)c5c4)cc([C@@H]4CCCN4)c3C2)CC1 [Compound Z245, (S)-(1-methoxycyclopropyl)(6-(3-methyl-1H-pyrrolo[2,3-b]pyridin-5-yl)-8-(pyrrolidin-2-yl)-3,4-dihydroisoquinolin-2(1H)-yl)methanone]
HPK1 [1]
  IC50: 0.45 nM
HPK1 [2]
  IC50: 119 nM

## Cc1c[nH]c2ncc(-c3cc4c(c([C@@H]5CCCN5)c3)CN(C(=O)OC3CC3)CC4)cc12 [Compound Z246, (S)-cyclopropyl 6-(3-methyl-1H-pyrrolo[2,3-b]pyridin-5-yl)-8-(pyrrolidin-2-yl)-3,4-dihydroisoquinoline-2(1H)-carboxylate]
HPK1 [1]
  IC50: 0.48 nM
HPK1 [2]
  IC50: 279 nM

## COCc1cc(N2CCc3cc(-c4cnc5[nH]cc(C)c5c4)cc([C@@H]4CCCN4)c3C2)ccn1 [Compound Z247, (S)-2-(2-(methoxymethyl)pyridin-4-yl)-6-(3-methyl-1H-pyrrolo[2,3-b]pyridin-5-yl)-8-(pyrrolidin-2-yl)-1,2,3,4-tetrahydroisoquinoline]
HPK1 [1]
  IC50: 0.61 nM
HPK1 [2]
  IC50: 151 nM

## Cc1c[nH]c2ncc(-c3cc4c(c([C@@H]5CCCN5)c3)CN(C(=O)NC3CC3)CC4)cc12 [Compound Z250, (S)—N-cyclopropyl-6-(3-methyl-1H-pyrrolo[2,3-b]pyridin-5-yl)-8-(pyrrolidin-2-yl)-3,4-dihydroisoquinoline-2(1H)-carboxamide]
HPK1 [1]
  IC50: 0.42 nM
HPK1 [2]
  IC50: 193 nM

## Cc1c[nH]c2ncc(-c3cc4c(c([C@@H]5CCCN5)c3)CN(S(=O)(=O)C3CC3)CC4)cc12 [Compound Z251, (S)-2-(cyclopropylsulfonyl)-6-(3-methyl-1H-pyrrolo[2,3-b]pyridin-5-yl)-8-(pyrrolidin-2-yl)-1,2,3,4-tetrahydroisoquinoline]
HPK1 [1]
  IC50: 0.49 nM
HPK1 [2]
  IC50: 131 nM

## CCN1Cc2c(cc(-c3cnc4[nH]cc(C)c4c3)cc2[C@@H]2CCCN2)NC1=O [Compound Z256, (S)-3-ethyl-7-(3-methyl-1H-pyrrolo[2,3-b]pyridin-5-yl)-5-(pyrrolidin-2-yl)-3,4-dihydroquinazolin-2(1H)-one]
HPK1 [1]
  IC50: 0.8 nM
HPK1 [2]
  IC50: 279 nM

## COCC(=O)N1Cc2cc(-c3cnc4[nH]cc(C)c4c3)cc([C@@H]3CCCN3)c2C1 [Compound Z261, (S)-2-methoxy-1-(6-(3-methyl-1H-pyrrolo[2,3-b]pyridin-5-yl)-4-(pyrrolidin-2-yl)isoindolin-2-yl)ethan-1-one hydrochloride]
HPK1 [1]
  IC50: 2.63 nM
HPK1 [2]
  IC50: 842 nM

## Cc1cc(C(=O)N2Cc3cc(-c4cnc5[nH]cc(C)c5c4)cc([C@@H]4CCCN4)c3C2)cc(C)n1 [Compound Z262, (S)-(2,6-dimethylpyridin-4-yl)(6-(3-methyl-1H-pyrrolo[2,3-b]pyridin-5-yl)-4-(pyrrolidin-2-yl)isoindolin-2-yl)methanone hydrochloride]
HPK1 [1]
  IC50: 1.72 nM
HPK1 [2]
  IC50: 627 nM

## Cc1cc(C(=O)N2CCc3c(cc(-c4cnc5[nH]cc(C)c5c4)cc3[C@@H]3CCCN3)C2)cc(C)n1 [Compound Z279, (S)-(2,6-dimethylpyridin-4-yl)(7-(3-methyl-1H-pyrrolo[2,3-b]pyridin-5-yl)-5-(pyrrolidin-2-yl)-3,4-dihydroisoquinolin-2(1H)-yl)methanone]
HPK1 [1]
  IC50: 0.44 nM
HPK1 [2]
  IC50: 162 nM

## Cc1nn(C)cc1C(=O)N1CCc2cc(-c3cnc4[nH]cc(C)c4c3)cc([C@@H]3CCCN3)c2C1 [Compound Z282, (S)-(1,3-dimethyl-1H-pyrazol-4-yl)(6-(3-methyl-1H-pyrrolo[2,3-b]pyridin-5-yl)-8-(pyrrolidin-2-yl)-3,4-dihydroisoquinolin-2(1H)-yl)methanone]
HPK1 [1]
  IC50: 0.38 nM
HPK1 [2]
  IC50: 471 nM

## Cc1ncncc1C(=O)N1CCc2cc(-c3cnc4[nH]cc(C)c4c3)cc([C@@H]3CCCN3)c2C1 [Compound Z283, (S)-(6-(3-methyl-1H-pyrrolo[2,3-b]pyridin-5-yl)-8-(pyrrolidin-2-yl)-3,4-dihydroisoquinolin-2(1H)-yl) (4-methylpyrimidin-5-yl)methanone]
HPK1 [1]
  IC50: 0.3 nM
HPK1 [2]
  IC50: 286 nM

## Cc1c[nH]c2ncc(-c3cc4c(c([C@@H]5CCCN5)c3)CCN(C(=O)[C@@](C)(O)C(F)(F)F)C4)cc12 [Compound Z285, (R)-3,3,3-trifluoro-2-hydroxy-2-methyl-1-(7-(3-methyl-1H-pyrrolo[2,3-b]pyridin-5-yl)-5-((S)-pyrrolidin-2-yl)-3,4-dihydroisoquinolin-2(1H)-yl)propan-1-one]
HPK1 [1]
  IC50: 0.91 nM
HPK1 [2]
  IC50: 323 nM

## Cc1c[nH]c2ncc(-c3cc4c(c([C@@H]5CCCN5)c3)CCN(C(=O)[C@](C)(O)C(F)(F)F)C4)cc12 [Compound Z285-1, (S)-3,3,3-trifluoro-2-hydroxy-2-methyl-1-(7-(3-methyl-1H-pyrrolo[2,3-b]pyridin-5-yl)-5-((S)-pyrrolidin-2-yl)-3,4-dihydroisoquinolin-2(1H)-yl)propan-1-one]
HPK1 [1]
  IC50: 0.87 nM
HPK1 [2]
  IC50: 239 nM

## Cc1c[nH]c2ncc(-c3cc4c(c([C@@H]5CCCN5)c3)CN(C(=O)[C@H](O)c3ccccc3)CC4)cc12 [Compound Z289, (R)-2-hydroxy-1-(6-(3-methyl-1H-pyrrolo[2,3-b]pyridin-5-yl)-8-((S)-pyrrolidin-2-yl)-3,4-dihydroisoquinolin-2(1H)-yl)-2-acetophenone]
HPK1 [1]
  IC50: 1.35 nM
HPK1 [2]
  IC50: 378 nM

## Cc1c[nH]c2ncc(-c3cc4c(c([C@@H]5CCCN5)c3)CN(C(=O)[C@@H](O)c3ccccc3)CC4)cc12 [Compound Z290, (S)-2-hydroxy-1-(6-(3-methyl-1H-pyrrolo[2,3-b]pyridin-5-yl)-8-((S)-pyrrolidin-2-yl)-3,4-dihydroisoquinolin-2(1H)-yl)-2-acetophenone]
HPK1 [1]
  IC50: 0.77 nM
HPK1 [2]
  IC50: 272 nM

## Cc1c[nH]c2ncc(-c3cc4c(c([C@@H]5CCCN5)c3)CN(c3ccncc3)CC4)cc12 [Compound Z291, (S)-6-(3-methyl-1H-pyrrolo[2,3-b]pyridin-5-yl)-2-(pyridin-4-yl)-8-(pyrrolidin-2-yl)-1,2,3,4-tetrahydroisoquinoline]
HPK1 [1]
  IC50: 0.6 nM
HPK1 [2]
  IC50: 162 nM

## CCN1Cc2cc(-c3cnc4[nH]cc(C)c4c3)cc([C@@H]3CCCN3)c2CC1=O [Compound Z292, (S)-2-ethyl-7-(3-methyl-1H-pyrrolo[2,3-b]pyridin-5-yl)-5-(pyrrolidin-2-yl)-1,4-dihydroisoquinolin-3(2H)-one]
HPK1 [1]
  IC50: 0.97 nM
HPK1 [2]
  IC50: 272 nM

## Cc1c[nH]c2ncc(-c3cc4c(c([C@@H]5CCCN5)c3)CCN(C(=O)[C@@H]3CCOC3)C4)cc12 [Compound Z293, (7-(3-methyl-1H-pyrrolo[2,3-b]pyridin-5-yl)-5-((S)-pyrrolidin-2-yl)-3,4-dihydroisoquinolin-2(1H)-yl) ((R)-tetrahydrofuran-3-yl)methanone]
HPK1 [1]
  IC50: 0.47 nM
HPK1 [2]
  IC50: 113 nM

## Cc1c[nH]c2ncc(-c3cc4c(c([C@@H]5CCCN5)c3)CCN(C(=O)[C@H]3CCOC3)C4)cc12 [Compound Z294, (7-(3-methyl-1H-pyrrolo[2,3-b]pyridin-5-yl)-5-((S)-pyrrolidin-2-yl)-3,4-dihydroisoquinolin-2(1H)-yl) ((S)-tetrahydrofuran-3-yl)methanone]
HPK1 [1]
  IC50: 0.52 nM
HPK1 [2]
  IC50: 95.3 nM

## CCNC(=O)N1CCc2c(cc(-c3cnc4[nH]cc(C)c4c3)cc2[C@@H]2CCCN2)C1 [Compound Z295, (S)—N-ethyl-7-(3-methyl-1H-pyrrolo[2,3-h]pyridin-5-yl)-5-(pyrrolidin-2-yl)-3,4-dihydroisoquinoline-2(1H)-carboxamide]
HPK1 [1]
  IC50: 1.22 nM
HPK1 [2]
  IC50: 214 nM

## Cc1c[nH]c2ncc(-c3cc4c(c(C5COCCN5)c3)CN(C(=O)[C@](C)(O)C(F)(F)F)CC4)cc12 (stereo partly drawn) [Compound Z296, (2S)-3,3,3-trifluoro-2-hydroxy-2-methyl-1-(6-(3-methyl-1H-pyrrolo[2,3-b]pyridin-5-yl)-8-(morpholin-3-yl)-3,4-dihydroisoquinolin-2(1H)-yl)propan-1-one]
HPK1 [1]
  IC50: 0.86 nM
HPK1 [2]
  IC50: 223 nM

## CNCc1cc(-c2cnc3[nH]cc(C)c3c2)cc2c1COCC2 [Compound Z298, N-methyl-1-(6-(3-methyl-1H-pyrrolo[2,3-b]pyridin-5-yl)isochroman-8-yl)methanamine]
HPK1 [1]
  IC50: 3.3 nM
HPK1 [2]
  IC50: 668 nM

## Cc1c[nH]c2ncc(-c3cc4c(c([C@@H]5CCCN5)c3)CCN(C(=O)C(C)(C)C)C4)cc12 [Compound Z300, (S)-2,2-dimethyl-1-(7-(3-methyl-1H-pyrrolo[2,3-b]pyridin-5-yl)-5-(pyrrolidin-2-yl)-3,4-dihydroisoquinolin-2(1H)-yl)propan-1-one]
HPK1 [1]
  IC50: 0.64 nM
HPK1 [2]
  IC50: 274 nM
